We go through ten compounds from publication PMC5933747 (PLoS ONE, 2018).

Structures are written as SMILES. Read-outs that look alike come from different tables or passages of the source. Bounds are passed on as bounds.

The target in this series is human NaV1.5 (Homo sapiens, UniProt Q14524). As to the kind of experiment: IonWorks Quattro (IWQ) electrophysiology, human NaV1.5. Format: cell-based. (Patch clamp records ionic current or voltage across a cell membrane.)
Setting [1] is: human, read-out: Glu mutant IWQ IC50 NaV1.5.
The mark [2] stands for this setting: human, read-out: Ala mutant IWQ IC50 NaV1.5.

human NaV1.5, sequence (Q14524 whole entry): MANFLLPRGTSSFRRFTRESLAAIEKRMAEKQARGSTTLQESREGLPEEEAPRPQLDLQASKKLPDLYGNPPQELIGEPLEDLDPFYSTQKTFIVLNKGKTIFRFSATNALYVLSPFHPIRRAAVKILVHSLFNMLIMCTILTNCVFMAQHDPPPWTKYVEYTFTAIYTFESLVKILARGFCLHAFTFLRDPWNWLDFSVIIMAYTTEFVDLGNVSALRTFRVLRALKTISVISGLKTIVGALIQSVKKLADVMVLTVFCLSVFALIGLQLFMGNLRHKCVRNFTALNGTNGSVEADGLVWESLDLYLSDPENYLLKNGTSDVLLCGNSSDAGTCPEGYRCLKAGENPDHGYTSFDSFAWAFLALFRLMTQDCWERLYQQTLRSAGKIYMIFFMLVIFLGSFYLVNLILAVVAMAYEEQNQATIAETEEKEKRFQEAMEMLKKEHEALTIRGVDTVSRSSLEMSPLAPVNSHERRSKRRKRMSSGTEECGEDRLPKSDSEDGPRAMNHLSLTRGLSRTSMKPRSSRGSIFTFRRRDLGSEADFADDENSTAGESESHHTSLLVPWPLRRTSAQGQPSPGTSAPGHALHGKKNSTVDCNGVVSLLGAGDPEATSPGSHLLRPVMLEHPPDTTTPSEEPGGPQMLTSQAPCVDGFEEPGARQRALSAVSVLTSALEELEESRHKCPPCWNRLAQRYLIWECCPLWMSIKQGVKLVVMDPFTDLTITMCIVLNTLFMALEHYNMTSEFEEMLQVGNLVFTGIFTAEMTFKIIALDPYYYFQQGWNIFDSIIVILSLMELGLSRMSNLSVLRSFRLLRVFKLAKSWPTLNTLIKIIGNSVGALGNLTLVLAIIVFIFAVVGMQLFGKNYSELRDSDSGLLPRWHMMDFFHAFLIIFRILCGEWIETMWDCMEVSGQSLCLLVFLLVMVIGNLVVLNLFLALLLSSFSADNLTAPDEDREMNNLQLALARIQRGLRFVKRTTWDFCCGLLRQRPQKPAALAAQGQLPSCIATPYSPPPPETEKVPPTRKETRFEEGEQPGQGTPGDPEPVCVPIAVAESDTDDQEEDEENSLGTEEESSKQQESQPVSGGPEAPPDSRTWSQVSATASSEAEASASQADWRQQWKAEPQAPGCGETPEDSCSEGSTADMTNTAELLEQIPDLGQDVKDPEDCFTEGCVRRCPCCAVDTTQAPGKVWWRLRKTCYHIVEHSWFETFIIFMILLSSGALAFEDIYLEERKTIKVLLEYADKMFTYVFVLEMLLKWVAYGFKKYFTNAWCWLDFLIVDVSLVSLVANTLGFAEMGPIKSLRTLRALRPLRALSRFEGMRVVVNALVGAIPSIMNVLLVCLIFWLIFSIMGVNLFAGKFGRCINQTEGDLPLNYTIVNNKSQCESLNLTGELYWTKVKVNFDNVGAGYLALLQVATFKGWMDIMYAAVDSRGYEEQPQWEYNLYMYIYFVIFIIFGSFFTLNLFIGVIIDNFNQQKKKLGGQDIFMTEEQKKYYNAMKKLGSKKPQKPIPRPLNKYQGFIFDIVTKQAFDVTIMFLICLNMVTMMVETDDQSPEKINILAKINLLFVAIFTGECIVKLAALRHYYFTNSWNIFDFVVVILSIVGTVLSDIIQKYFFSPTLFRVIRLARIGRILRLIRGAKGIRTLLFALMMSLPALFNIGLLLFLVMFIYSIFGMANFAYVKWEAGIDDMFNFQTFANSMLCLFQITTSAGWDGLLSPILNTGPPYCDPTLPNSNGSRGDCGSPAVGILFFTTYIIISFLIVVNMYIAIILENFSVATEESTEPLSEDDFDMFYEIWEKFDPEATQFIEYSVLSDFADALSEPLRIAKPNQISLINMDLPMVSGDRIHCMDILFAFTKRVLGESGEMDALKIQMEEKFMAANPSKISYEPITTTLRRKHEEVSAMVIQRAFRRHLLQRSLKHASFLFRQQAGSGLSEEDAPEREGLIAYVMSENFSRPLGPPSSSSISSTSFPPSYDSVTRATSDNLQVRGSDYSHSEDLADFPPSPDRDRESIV

Broadly, the IC50 is the point on the concentration scale where inhibition reaches its midpoint. For the compound `CC[C@H](C)[C@H](NC(=O)[C@@H](NC(=O)[C@H](CCCCN)NC(=O)[C@H](CCCNC(=N)N)NC(=O)[C@@H]1CSSC[C@@H]2NC(=O)[C@H](CCC(=O)O)NC(=O)[C@H](CCCNC(=N)N)NC(=O)[C@H](CCCCN)NC(=O)[C@H](CO)NC(=O)[C@H](CC(=O)O)NC(=O)[C@@H]3CSSC[C@H](NC(=O)[C@H](CCCNC(=N)N)NC(=O)[C@H](CC(C)C)NC(=O)CNC(=O)[C@H](CCC(=O)O)NC(=O)[C@H](CSSC[C@H](NC(=O)[C@@H](N)Cc4ccc(O)cc4)C(=O)N[C@@H](CCC(N)=O)C(=O)N[C@@H](CCCCN)C(=O)N[C@@H](Cc4c[nH]c5ccccc45)C(=O)N[C@@H](CCSC)C(=O)N[C@@H](Cc4c[nH]c5ccccc45)C(=O)N[C@@H]([C@@H](C)O)C(=O)N3)NC2=O)C(=O)N[C@@H](CCCCN)C(=O)N[C@@H](CC(C)C)C(=O)N[C@@H](Cc2c[nH]c3ccccc23)C(=O)N1)[C@@H](C)CC)C(N)=O` [A14 Glu mutant], under setting [1], the IC50 is > 5 µM.
For `CC[C@H](C)[C@H](NC(=O)[C@@H](NC(=O)[C@H](CCCCN)NC(=O)[C@H](CCCNC(=N)N)NC(=O)[C@@H]1CSSC[C@@H]2NC(=O)[C@H](C)NC(=O)[C@H](CCCNC(=N)N)NC(=O)[C@H](CCCCN)NC(=O)[C@H](C)NC(=O)[C@H](CC(=O)O)NC(=O)[C@@H]3CSSC[C@H](NC(=O)[C@H](CCCNC(=N)N)NC(=O)[C@H](CC(C)C)NC(=O)CNC(=O)[C@H](CCC(=O)O)NC(=O)[C@H](CSSC[C@H](NC(=O)[C@@H](N)Cc4ccc(O)cc4)C(=O)N[C@@H](CCC(N)=O)C(=O)N[C@@H](CCCCN)C(=O)N[C@@H](Cc4c[nH]c5ccccc45)C(=O)N[C@@H](CCSC)C(=O)N[C@@H](Cc4c[nH]c5ccccc45)C(=O)N[C@@H]([C@@H](C)O)C(=O)N3)NC2=O)C(=O)N[C@@H](CCCCN)C(=O)N[C@@H](CC(C)C)C(=O)N[C@@H](Cc2c[nH]c3ccccc23)C(=O)N1)[C@@H](C)CC)C(N)=O` [S11 Ala mutant], under “IWQ platform, single-residue Ala scan of JzTx-V, read-out: Ala mutant IWQ IC50 NaV1.5”, the IC50 was determined as 3.56 µM.
Take `CC[C@H](C)[C@H](NC(=O)[C@@H](NC(=O)[C@H](CCCCN)NC(=O)[C@H](CCCNC(=N)N)NC(=O)[C@@H]1CSSC[C@@H]2NC(=O)[C@H](C)NC(=O)[C@H](CCCNC(=N)N)NC(=O)[C@H](CCCCN)NC(=O)[C@H](CO)NC(=O)[C@H](CC(=O)O)NC(=O)[C@@H]3CSSC[C@H](NC(=O)[C@H](CCCNC(=N)N)NC(=O)[C@H](CC(C)C)NC(=O)CNC(=O)[C@H](CCC(=O)O)NC(=O)[C@H](CSSC[C@H](NC(=O)[C@@H](N)Cc4ccc(O)cc4)C(=O)N[C@@H](CCC(N)=O)C(=O)N[C@@H](CCCCN)C(=O)N[C@@H](Cc4c[nH]c5ccccc45)C(=O)N[C@@H](CCSC)C(=O)N[C@@H](CCC(=O)O)C(=O)N[C@@H]([C@@H](C)O)C(=O)N3)NC2=O)C(=O)N[C@@H](CCCCN)C(=O)N[C@@H](CC(C)C)C(=O)N[C@@H](Cc2c[nH]c3ccccc23)C(=O)N1)[C@@H](C)CC)C(N)=O` [W7 Glu mutant]: under setting [1], the IC50 is > 5 µM.
As to `CC[C@H](C)[C@H](NC(=O)[C@@H](NC(=O)[C@H](CCCCN)NC(=O)[C@H](CCCNC(=N)N)NC(=O)[C@@H]1CSSC[C@@H]2NC(=O)[C@H](C)NC(=O)[C@H](CCCNC(=N)N)NC(=O)[C@H](CCCCN)NC(=O)[C@H](CO)NC(=O)[C@H](CC(=O)O)NC(=O)[C@@H]3CSSC[C@H](NC(=O)[C@H](CCCNC(=N)N)NC(=O)[C@H](CC(C)C)NC(=O)CNC(=O)[C@H](CCC(=O)O)NC(=O)[C@H](CSSC[C@H](NC(=O)[C@@H](N)Cc4ccc(O)cc4)C(=O)N[C@@H](CCC(N)=O)C(=O)N[C@@H](CCCCN)C(=O)N[C@@H](Cc4c[nH]c5ccccc45)C(=O)N[C@@H](CCSC)C(=O)N[C@@H](Cc4c[nH]c5ccccc45)C(=O)N[C@@H]([C@@H](C)O)C(=O)N3)NC2=O)C(=O)N[C@@H](CCCCN)C(=O)N[C@@H](C)C(=O)N[C@@H](Cc2c[nH]c3ccccc23)C(=O)N1)[C@@H](C)CC)C(N)=O` [L23 Ala mutant], under setting [2], the IC50 is > 5 µM.
Consider `CC[C@H](C)[C@H](NC(=O)[C@@H](NC(=O)[C@H](CCCCN)NC(=O)[C@H](CCCNC(=N)N)NC(=O)[C@@H]1CSSC[C@@H]2NC(=O)[C@H](C)NC(=O)[C@H](CCCNC(=N)N)NC(=O)[C@H](C)NC(=O)[C@H](CO)NC(=O)[C@H](CC(=O)O)NC(=O)[C@@H]3CSSC[C@H](NC(=O)[C@H](CCCNC(=N)N)NC(=O)[C@H](CC(C)C)NC(=O)CNC(=O)[C@H](CCC(=O)O)NC(=O)[C@H](CSSC[C@H](NC(=O)[C@@H](N)Cc4ccc(O)cc4)C(=O)N[C@@H](CCC(N)=O)C(=O)N[C@@H](CCCCN)C(=O)N[C@@H](Cc4c[nH]c5ccccc45)C(=O)N[C@@H](CCSC)C(=O)N[C@@H](Cc4c[nH]c5ccccc45)C(=O)N[C@@H]([C@@H](C)O)C(=O)N3)NC2=O)C(=O)N[C@@H](CCCCN)C(=O)N[C@@H](CC(C)C)C(=O)N[C@@H](Cc2c[nH]c3ccccc23)C(=O)N1)[C@@H](C)CC)C(N)=O` [K12 Ala mutant], for which the half-maximal inhibitory concentration (IC50) under setting [2] was > 5 µM.
On to `CC[C@H](C)[C@H](NC(=O)[C@@H](NC(=O)[C@H](CCCCN)NC(=O)[C@H](CCCNC(=N)N)NC(=O)[C@@H]1CSSC[C@@H]2NC(=O)[C@H](C)NC(=O)[C@H](CCCNC(=N)N)NC(=O)[C@H](CCCCN)NC(=O)[C@H](CO)NC(=O)[C@H](CC(=O)O)NC(=O)[C@@H]3CSSC[C@H](NC(=O)[C@H](CCCNC(=N)N)NC(=O)[C@H](CC(C)C)NC(=O)CNC(=O)[C@H](CCC(=O)O)NC(=O)[C@H](CSSC[C@H](NC(=O)[C@@H](N)Cc4ccc(O)cc4)C(=O)N[C@@H](CCC(N)=O)C(=O)N[C@@H](CCCCN)C(=O)N[C@@H](Cc4c[nH]c5ccccc45)C(=O)N[C@@H](CCSC)C(=O)N[C@@H](Cc4c[nH]c5ccccc45)C(=O)N[C@@H]([C@@H](C)O)C(=O)N3)NC2=O)C(=O)N[C@@H](CCCCN)C(=O)N[C@@H](CCC(=O)O)C(=O)N[C@@H](Cc2c[nH]c3ccccc23)C(=O)N1)[C@@H](C)CC)C(N)=O` [L23 Glu mutant], for which, under setting [1], the IC50 is > 5 µM.
In the case of `CC[C@H](C)[C@H](NC(=O)[C@@H](NC(=O)[C@H](CCCCN)NC(=O)[C@H](CCCNC(=N)N)NC(=O)[C@@H]1CSSC[C@@H]2NC(=O)[C@H](C)NC(=O)[C@H](CCCNC(=N)N)NC(=O)[C@H](CCCCN)NC(=O)[C@H](CO)NC(=O)[C@H](CC(=O)O)NC(=O)[C@@H]3CSSC[C@H](NC(=O)[C@H](CCCNC(=N)N)NC(=O)[C@H](CC(C)C)NC(=O)CNC(=O)[C@H](CCC(=O)O)NC(=O)[C@H](CSSC[C@H](NC(=O)[C@@H](N)Cc4ccc(O)cc4)C(=O)N[C@@H](CCC(N)=O)C(=O)N[C@@H](CCCCN)C(=O)N[C@@H](Cc4c[nH]c5ccccc45)C(=O)N[C@@H](CCSC)C(=O)N[C@@H](Cc4c[nH]c5ccccc45)C(=O)N[C@@H](C)C(=O)N3)NC2=O)C(=O)N[C@@H](CCCCN)C(=O)N[C@@H](CC(C)C)C(=O)N[C@@H](Cc2c[nH]c3ccccc23)C(=O)N1)[C@@H](C)CC)C(N)=O` [T8 Ala mutant], the IC50 under setting [2] is > 5 µM.
Regarding `CC[C@H](C)[C@H](NC(=O)[C@@H](NC(=O)[C@H](CCCCN)NC(=O)[C@H](CCCNC(=N)N)NC(=O)[C@@H]1CSSC[C@@H]2NC(=O)[C@H](C)NC(=O)[C@H](C)NC(=O)[C@H](CCCCN)NC(=O)[C@H](CO)NC(=O)[C@H](CC(=O)O)NC(=O)[C@@H]3CSSC[C@H](NC(=O)[C@H](CCCNC(=N)N)NC(=O)[C@H](CC(C)C)NC(=O)CNC(=O)[C@H](CCC(=O)O)NC(=O)[C@H](CSSC[C@H](NC(=O)[C@@H](N)Cc4ccc(O)cc4)C(=O)N[C@@H](CCC(N)=O)C(=O)N[C@@H](CCCCN)C(=O)N[C@@H](Cc4c[nH]c5ccccc45)C(=O)N[C@@H](CCSC)C(=O)N[C@@H](Cc4c[nH]c5ccccc45)C(=O)N[C@@H]([C@@H](C)O)C(=O)N3)NC2=O)C(=O)N[C@@H](CCCCN)C(=O)N[C@@H](CC(C)C)C(=O)N[C@@H](Cc2c[nH]c3ccccc23)C(=O)N1)[C@@H](C)CC)C(N)=O` [R13 Ala mutant], the IC50 under setting [2] is > 5 µM.
Regarding `CC[C@H](C)[C@H](NC(=O)[C@@H](NC(=O)[C@H](CCCCN)NC(=O)[C@H](CCCNC(=N)N)NC(=O)[C@@H]1CSSC[C@@H]2NC(=O)[C@H](C)NC(=O)[C@H](CCCNC(=N)N)NC(=O)[C@H](CCCCN)NC(=O)[C@H](CO)NC(=O)[C@H](CC(=O)O)NC(=O)[C@@H]3CSSC[C@H](NC(=O)[C@H](CCCNC(=N)N)NC(=O)[C@H](CC(C)C)NC(=O)CNC(=O)[C@H](C)NC(=O)[C@H](CSSC[C@H](NC(=O)[C@@H](N)Cc4ccc(O)cc4)C(=O)N[C@@H](CCC(N)=O)C(=O)N[C@@H](CCCCN)C(=O)N[C@@H](Cc4c[nH]c5ccccc45)C(=O)N[C@@H](CCSC)C(=O)N[C@@H](Cc4c[nH]c5ccccc45)C(=O)N[C@@H]([C@@H](C)O)C(=O)N3)NC2=O)C(=O)N[C@@H](CCCCN)C(=O)N[C@@H](CC(C)C)C(=O)N[C@@H](Cc2c[nH]c3ccccc23)C(=O)N1)[C@@H](C)CC)C(N)=O` [E17 Ala mutant], the half-maximal inhibitory concentration (IC50) (read-out: Ala mutant IWQ IC50 NaV1.5) was > 5 µM.
As to `CC[C@H](C)[C@H](NC(=O)[C@H](CCCCN)NC(=O)[C@H](CCCNC(=N)N)NC(=O)[C@@H]1CSSC[C@@H]2NC(=O)[C@H](C)NC(=O)[C@H](CCCNC(=N)N)NC(=O)[C@H](CCCCN)NC(=O)[C@H](CO)NC(=O)[C@H](CC(=O)O)NC(=O)[C@@H]3CSSC[C@H](NC(=O)[C@H](CCCNC(=N)N)NC(=O)[C@H](CC(C)C)NC(=O)CNC(=O)[C@H](CCC(=O)O)NC(=O)[C@H](CSSC[C@H](NC(=O)[C@@H](N)Cc4ccc(O)cc4)C(=O)N[C@@H](CCC(N)=O)C(=O)N[C@@H](CCCCN)C(=O)N[C@@H](Cc4c[nH]c5ccccc45)C(=O)N[C@@H](CCSC)C(=O)N[C@@H](Cc4c[nH]c5ccccc45)C(=O)N[C@@H]([C@@H](C)O)C(=O)N3)NC2=O)C(=O)N[C@@H](CCCCN)C(=O)N[C@@H](CC(C)C)C(=O)N[C@@H](Cc2c[nH]c3ccccc23)C(=O)N1)C(=O)N[C@@H](C)C(N)=O` [I29 Ala mutant], under setting [2], the IC50 was > 5 µM.
